Source: patent US6159705A, “Recombinant yeast cells for identifying receptor effectors” (Cadus Pharmaceutical Corporation, priority 1997, dated 2000)

Columns and labels:
[1] = test system: FPRL-1; details: uM concentrations; cited from earlier work
[2] = molecular target: T1, S. cerevisiae pheromone receptor, Ste2p (Saccharomyces cerevisiae, UniProt D6VTK4); assay: Bar1 plate assay, agonist-induced Ste2p activation; assay type: cell-based
T1 sequence (D6VTK4 1-431): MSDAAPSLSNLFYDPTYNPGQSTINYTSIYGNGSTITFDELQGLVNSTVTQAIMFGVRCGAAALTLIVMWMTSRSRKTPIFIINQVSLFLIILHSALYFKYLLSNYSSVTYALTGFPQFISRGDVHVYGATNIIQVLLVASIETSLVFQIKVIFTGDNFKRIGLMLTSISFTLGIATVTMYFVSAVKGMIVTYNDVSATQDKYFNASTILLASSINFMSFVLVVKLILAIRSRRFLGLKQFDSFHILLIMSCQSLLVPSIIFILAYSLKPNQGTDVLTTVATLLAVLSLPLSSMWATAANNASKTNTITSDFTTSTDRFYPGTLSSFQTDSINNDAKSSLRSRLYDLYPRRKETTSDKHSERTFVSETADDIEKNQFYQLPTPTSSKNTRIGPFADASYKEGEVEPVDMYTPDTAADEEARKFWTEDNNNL
Method: The cells were removed from the culture by filtration.
Assay plates were prepared as follows. CY 579 cells were grown overnight in YEPD medium.
Since CY 579 lacks the BAR1 gene, it is super-sensitive to α-factor causing its growth to be arrested on the YEPD+α-factor plate. If the conditioned media applied to the lawn contains Bar1p activity, the α-factor in that region is destroyed, allowing growth of the CY 579 cells.
First, the gene encoding the S. cerevisiae Gα, GPA 1, was reintroduced into the genome of CY 8034 (MATa gpa1*1162 far1-1 ste2*1154 ste14::trp1::LYS2 fus1-HIS3 ura3 trp1 leu2 lys2 his3 ade2-1 met1) by transformation with an integrating plasmid encoding GPA1 (Cadus 3907), creating CY 11364. Next, the gene encoding the S. cerevisiae RGS protein, SST2, was disrupted in this strain to create CY 11645. Since Sst2p is involved in desensitization of the pheromone response pathway, its disruption results in increased signaling through the pathway (Reviewed by Sprague and Thorner in Molecular and Cellular Biology of the Yeast Saccharomyces. Vol. 2. 1992).
A high copy number Ste2 expression plasmid was constructed as follows. […]
(to OD600 0.4). […] A standard curve was also done with each experiment (described in Example 1) to quantitate the results.

[3] = molecular target: T2, Ste2p (Saccharomyces cerevisiae, UniProt D6VTK4); assay: Pho5p acid phosphatase activity in strains with PHO4/STE12 chimerae (Ste2p activation); assay type: cell-based, S. cerevisiae
T2 construct: CY 1638 (MATa far1*1442 tbt1-1 FUS1-HIS3 trp1ura3 leu2 his3 suc2); endogenous in cells; host or cells: S. cerevisiae CY 11643 (MATa, pho3 and pho4 disrupted, from CY 1638 via CY 9788), carrying PHO4/STE12 chimera plasmids or Cadus 4129
T2 sequence (D6VTK4 1-431): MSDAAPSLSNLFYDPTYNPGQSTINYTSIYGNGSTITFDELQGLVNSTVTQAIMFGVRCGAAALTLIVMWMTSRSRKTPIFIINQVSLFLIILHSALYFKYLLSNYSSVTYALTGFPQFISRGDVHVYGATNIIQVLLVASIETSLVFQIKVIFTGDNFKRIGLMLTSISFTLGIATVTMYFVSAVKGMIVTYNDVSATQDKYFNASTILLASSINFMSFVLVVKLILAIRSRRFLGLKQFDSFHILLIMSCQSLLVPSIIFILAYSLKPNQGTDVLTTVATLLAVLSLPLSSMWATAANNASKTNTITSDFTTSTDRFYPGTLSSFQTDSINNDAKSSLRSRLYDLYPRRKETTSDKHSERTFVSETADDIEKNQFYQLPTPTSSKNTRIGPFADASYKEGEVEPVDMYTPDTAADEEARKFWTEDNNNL
Method: were used to amplify the KanMX2 gene. The amplification product was flanked by sequences corresponding to the 5' and 3' ends of the PHO4 gene. […] Transformants were selected on YEPD+geneticin (200 μg/ml) plates. […] Cells were patched onto YEPD or phosphate-depleted YEPD plates and allowed to grow overnight. For each plate, a mixture of 2 ml of molten 1% agarose in 50 mM NaAc pH 4.0, 700 μl H2 O, and 300 μl α-napthyl acid phosphate (50 mg/ml) was prepared and applied to the plate. Then 1 ml of D-dianisidine fast blue salt B (50 mg/ml in 50 mM NaAc pH 4.0) was poured onto the plate. The degree of color development is a measure of acid phosphatase activity produced by the patch of cells.
The PHO3 gene also encodes a secreted acid phosphatase, but its expression is not regulated by Pho4p. […] Since this gene is not essential and its presence would require that all assays be done under conditions of phosphate starvation, it was disrupted. Primers
were used to amplify sequences in the 3' untranslated region of the PHO3 gene. The amplification product which bears an EcoRI site ate its 5' end and an XbaI site at its 3' end was digested with EcoRI and XbaI and gel purified.
Cells were grown overnight in SD TRP- media. […] The cultures were split in half (2.5 ml each) and α-factor (25 μg) was added to one aliquot. After 2.5 hours at 30° C., the cells were collected by centrifugation, washed 3 times with H2 O, once with 50 mM NaAc pH 4.0, and resuspended in 250 μl 50 mM NaAc pH 4.0. […] 100 μl cells were added to 400 μl p-nitrophenyl phosphate (1 mg/ml in 50 mM NaAc pH 4.0). After 15 min at room temperature, 720 μl saturated NaCO3 was added to stop the reaction. The cells were removed by centrifugation and the optical density at 420 nm was determined.

[4] = test system: induced HL60 cells; assay: Competition with radiolabeled C5a for binding on induced HL60 cells; details: C5a expressed in yeast
[5] = test system: human C5a receptor; assay: Autocrine activation, fus1-lacZ beta-galactosidase; assay type: cell-based; details: R+L+ cells
Method: CY878 (MATα tbt1-1 fus1-HIS3 caN1 ste14::trp1::LYS2 ste3* 1156 gpal(41)-Gαi2) was used as the starting strain for these experiments. This strain is a trp1 derivative of CY455. The transformants for this experiment contained CADUS 1584 (pRS424-fus1-lacZ) in addition to the receptor and ligand plasmids. Four strains were grown overnight in SD LEU URA TRP pH6.8 with 50 mM PIPES to an OD600 of less than 0.8. Assay of β-galactosidase activity can be done useing methods known in the art (Guarente 1983).

[6] = test system: human C5a receptor; assay: Autocrine activation of pheromone pathway, growth read-out (fus1-HIS3); assay type: cell-based
Description: The strain used for this analysis, CY455 (MATα tbt1-1 ura3 leu2 trp1 his3 fus1-HIS3 can1 ste14::TRP1 ste3* 1156) contains the following significant modifications. A pheromone inducible HIS3 gene, fus1-HIS3, is integrated at the Fus1 locus. A hybrid gene containing sequence encoding the first 41 amino acids of GPA1 (the yeast Gα subunit) fused to sequence encoding human Gαi2a (minus codons for the N-terminal 33 amino acids) replaces GPA1 at its normal chromosomal location. The yeast STE14 gene is disrupted to lower the basal level of signaling through the pheromone response pathway. The yeast a-factor receptor gene, STE3, is deleted. The last two modifications are probably not essential, but appear to improve the signal-to-noise ratio.
CY455 (MATα tbt1-1 ura3 leu2 trp1 his3 fus1-HIS3 can1 ste14::TRP1 ste3 * 1156) was transformed with the following plasmids:
Cadus 1303+Cadus 1297=Receptor^+ Ligand^+ =(R+L+)
Three colonies were picked from each transformation and grown overnight in media lacking leucine and uracil, at pH 6.8 with 25 mM PIPES (LEU URA pH6.8 with 25 mM PIPES). This media was made by adding 0.45 ml of sterile 1 M KOH and 2.5 ml of sterile 1M PIPES pH 6.8 to 100 ml of standard SD LEU- URA- media. […] The optical density at 600 nm of a 1/20 dilution of these cultures was determined and the cultures were diluted into 25 mM PIPES pH 6.8 to a final OD600 of 0.2. […]

[7] = molecular target: C5a receptor; details: data derived from mammalian cells; read-out: binding constant of C5a to its receptor; cited from earlier work

## CSCC[C@H](NC=O)C(=O)N[C@@H](CC(C)C)C(=O)N[C@@H](Cc1ccccc1)C(=O)O [f-Met-Leu-Phe]
[1]
  binding to fibroblasts transfected with FPRL-1 cDNA: weak binding

## α-factor
[2]; cells expressing Ste2p (CY 11728), α-factor 10 μg, 2 h, 30° C.
  increase in Bar1p activity: greater than 8 fold
[2]; cells lacking the Ste2p expression plasmid (CY 11727)
  Bar1p activity in conditioned media: Little or no Bar1p activity was detected
[3]; all strains expressing Pho4/Ste12 chimerae
  acid phosphatase activity inducible by pheromone: pheromone-inducible acid phosphatase activity was observed
[3]; cells expressing only the Pho4p DNA binding domain (CY11643+Cadus 4129)
  change of acid phosphatase activity on exposure to α-factor: not increased by exposure to α-factor
[3]; other chimerae with very low constitutive activity
  Pho5p induction ratio: 5-10 fold
[3]; two chimerae with high constitutive activity (printed Cadus 4184 and Cadus 4185)
  Pho5p induction ratio: 2-4 fold

B1: C5a: Human C5a is a 74 amino acid polypeptide that derives from the fifth component of complement (protein, UniProt P01031 678-751, looked up)
C5a anaphylatoxin: TLQKKIEEIAAKYKHSVVKKCCYDGACVNNDETCEQRAARISLGPRCIKAFTECCVVASQLRANISHKDMQLGR
modifications: C5a anaphylatoxin
notes: Human C5a is a 74 amino acid polypeptide that derives from the fifth component of complement
[4]
  competition for binding with radiolabeled C5a: shown to compete for binding
[5]
  autocrine stimulation and β-galactosidase activity: results in autocrine stimulation and β-galactosidase activity
[6]; R+L+ strain, C5a expressed by the cell
  growth on selective plates lacking histidine: show growth on the selective plates
[6]; highest concentration tested
  aminotriazole concentration up to which the R+L+ strain will grow: up to 5 mM
[7]
  Kd: 1 nM
